In PubChem BioAssay AID2060882 (Molecular Pharmacology Branch, DTP, NCI, 2025):

Tested on: 898857-211-R-J1-PDC complex spheroids, growth % test/control
Assay: Anticancer human tumor 898857-211-R-J1-PDC patient-derived melanoma cell line growth inhibition [RAS]
Details: for IC50: curve of first compound; for viability, T/C: stronger effect = lower value
How it was run: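 Tumour cells grown as complex spheroids with HUVEC endothelial cells and mesenchymal stem cells, treated with RAS pathway inhibitor combinations. Each agent spans half-log steps from near clinical Cmax, or 10 microM where Cmax is unknown.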
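Note: spheroids exposed to compound for seven days before readout.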
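Throughout, for viability, T/C: 100% = DMSO vehicle control wells.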

## CC(=O)OC12COC1CC(O)C1(C)C(=O)C(O)C3=C(C)C(OC(=O)C(O)C(NC(=O)OC(C)(C)C)c4ccccc4)CC(O)(C(OC(=O)c4ccccc4)C21)C3(C)C (configuration not stated) + C#Cc1c(F)ccc2cc(O)cc(-c3ncc4c(N5CC6CCC(C5)N6)nc(OCC56CCCN5CC(F)C6)nc4c3F)c12
Second compound 0.0316 µM
  IC50: < 0.0316 µM
Second compound 0.1 µM
  IC50: < 0.0316 µM
Second compound 0.316 µM
  IC50: < 0.0316 µM
Second compound 1 µM
  IC50: < 0.0316 µM
Second compound 3.16 µM
  IC50: < 0.0316 µM
Second compound 10 µM
  IC50: < 0.0316 µM
Second compound 0.0316 µM, first compound 0.0316 µM
  viability, T/C: 12%
Second compound 0.0316 µM, first compound 0.1 µM
  viability, T/C: 12.8%
Second compound 0.0316 µM, first compound 0.316 µM
  viability, T/C: 12.1%
Second compound 0.0316 µM, first compound 1 µM
  viability, T/C: 16%
Second compound 0.0316 µM, first compound 3.16 µM
  viability, T/C: 26.6%
Second compound 0.0316 µM, first compound 10 µM
  viability, T/C: 27.4%
Second compound 0.1 µM, first compound 0.0316 µM
  viability, T/C: 13%
Second compound 0.1 µM, first compound 0.1 µM
  viability, T/C: 12.1%
Second compound 0.1 µM, first compound 0.316 µM
  viability, T/C: 14.1%
Second compound 0.1 µM, first compound 1 µM
  viability, T/C: 17.1%
Second compound 0.1 µM, first compound 3.16 µM
  viability, T/C: 25.5%
Second compound 0.1 µM, first compound 10 µM
  viability, T/C: 21.1%
Second compound 0.316 µM, first compound 0.0316 µM
  viability, T/C: 16.4%
Second compound 0.316 µM, first compound 0.1 µM
  viability, T/C: 15.8%
Second compound 0.316 µM, first compound 0.316 µM
  viability, T/C: 12.1%
Second compound 0.316 µM, first compound 1 µM
  viability, T/C: 17.7%
Second compound 0.316 µM, first compound 3.16 µM
  viability, T/C: 25.2%
Second compound 0.316 µM, first compound 10 µM
  viability, T/C: 21.3%
Second compound 1 µM, first compound 0.0316 µM
  viability, T/C: 14.2%
Second compound 1 µM, first compound 0.1 µM
  viability, T/C: 12.7%
Second compound 1 µM, first compound 0.316 µM
  viability, T/C: 12.8%
Second compound 1 µM, first compound 1 µM
  viability, T/C: 16.5%
Second compound 1 µM, first compound 3.16 µM
  viability, T/C: 15.7%
Second compound 1 µM, first compound 10 µM
  viability, T/C: 24.7%
Second compound 3.16 µM, first compound 0.0316 µM
  viability, T/C: 13.3%
Second compound 3.16 µM, first compound 0.1 µM
  viability, T/C: 16.7%
Second compound 3.16 µM, first compound 0.316 µM
  viability, T/C: 16.7%
Second compound 3.16 µM, first compound 1 µM
  viability, T/C: 20.4%
Second compound 3.16 µM, first compound 3.16 µM
  viability, T/C: 24.6%
Second compound 3.16 µM, first compound 10 µM
  viability, T/C: 27.6%
Second compound 10 µM, first compound 0.0316 µM
  viability, T/C: 7.03%
Second compound 10 µM, first compound 0.1 µM
  viability, T/C: 9%
Second compound 10 µM, first compound 0.316 µM
  viability, T/C: 5.98%
Second compound 10 µM, first compound 1 µM
  viability, T/C: 9.12%
Second compound 10 µM, first compound 3.16 µM
  viability, T/C: 7.68%
Second compound 10 µM, first compound 10 µM
  viability, T/C: 7.34%
